Three compounds from patent publication US20120315256A1, “USE OF TRANSFORMING GROWTH FACTOR - BETA 1 (TGF-B1) INHIBITOR PEPTIDES FOR THE TREATMENT OF CORNEAL FIBROSIS AND/OR HAZE” (DIGNA BIOTECH, S.I., priority 2010, published 2012) can be followed below.

Entries after “also recorded” stand apart in the source; their conditions may differ.

One test deals with Long-Evans rats. Description: Corneal damage with 1 N NaOH in rats: weekly follow-up of corneal haze and epithelial closure (photographs, ImageJ). The following applies: for chemical lesions induced after corneal damage with 1N NaOH: after treatment, different experimentation groups; for corneal haze, significance treated at the fifth week vs. treated at day 0 / epithelial closure, significance treated at the fifth week vs. treated at day 0: fifth week vs day 0; for corneal haze, significance control vs. peptide / epithelial closure, significance control vs. peptide: Student's t-test; for corneal haze / epithelial closure: treated eye vs control eye, topical eye drops, fifth formulation, 1 N NaOH damage; for epithelial closure: fluorescein. It counts as in vivo, rat. An excerpt: In this study, domestic hens (Gallus gallus domesticus) aged between 12 and 16 months were initially used as experimental animals but due to the difficulty of the model, especially in relation to obtaining and handling the animals, it was decided to use Long-Evans rats. Furthermore, it was bibliographically verified that these animals are used for in vivo models for studying corneal fibrosis because they allow to follow the evolution of the damage with more precision since they are pigmented rats and, like humans, have a Bowman's membrane.
Male Long-Evans rats aged 10 weeks were used, divided into 5 groups: • Group 1: 12 rats, 6 treated with dexamethasone and 6 treated with mitomycin C. • Group 2: 12 rats, 6 treated with p17 of the first formulation (see section 1.1.2.b) and 6 treated with p144 of the first formulation (see section 1.1.2.b). • Group 3: 12 rats, 6 treated with p17 of the second formulation (see section 1.1.2.b) and 6 treated with p144 of the second formulation (see section 1.1.2.b). • Group 4: 12 rats, 6 treated with p17 of the third formulation (see section 1.1.2.b) and 6 treated with p144 of the third formulation (see section 1.1.2.b). • Group 5: 12 rats, 6 treated with p17 of the fourth formulation (see section 1.1.2.b) and 6 treated with p144 of the fourth formulation (see section 1.1.2.b). • Group 6: 12 rats, 6 treated with p17 of the fifth formulation (see section 1.1.2.b) and 6 treated with p144 of the fifth formulation (see section 1.1.2.b).
To perform the damage in the cornea, the animals were anesthetized with isoflurane and a 5 mm Whatman paper disc impregnated in 1 N NaOH for 30 seconds was applied to them in the central part of the eye. After the damage, they were washed with abundant physiological saline serum and an antibiotic ointment was applied to them to prevent possible infections in the affected area.
After conducting several in vivo studies with the previously described groups of animals, it could be concluded that the chemical damage occurring after the application of NaOH for 30 seconds caused an excessive lesion for the study which was to be conducted, therefore, it was decided to conduct new experiments reducing the time to 15 seconds.
It was randomly established that the left eye of each animal would act as a control and that the right eye would be the treated eye, such that the same animals acts as a control in addition to being treated. It must be pointed out that all the animals received antibiotic treatment in both eyes daily only during the first week of the study for the purposes of avoiding microbial keratitis.
Starting from 0.15% sodium hyaluronate (Hyabak 10 mL, Thea) without preservatives: • p144: 20 mg were dissolved in 5 ml of eye drops, […] of saturated concentrated NaOH were incorporated, stirring and adding in portions of 5 μl. It was sonicated until solubilization. To adjust the pH, 500 μl of 1M HEPES (4-(2-hydroxyethyl)-1-piperazineethanesulfonic acid) were added, such that the pH changed from 10.5 to 7 • p144 control: 40 μl of saturated NaOH and 500 μl of 1 M HEPES (final concentration of HEPES 50 mM) • p17: 20 mg were dissolved in 5 ml of the eye drops, it was sonicated until complete solubilization and it was incorporated to the vial with a 10 ml syringe and a blue needle to perforate the filter of the contained (final concentration 2 mg/ml) • p17 control: non-manipulated eye drops • Note: The formulations were maintained at 4° C. throughout the study.
Therefore, all the results shown in relation to in vivo will refer to this type of treatment.
The administration of the treatment was initiated twenty-four hours after the damage. After that time a follow-up of the damage was performed, which consisted of taking photographs at days 0, 7, 14, 21, 28 and 35. To take the photographs the animals were anesthetized with isoflurane. Photographs were taken of both the control eye (left) and of the treated eye (right) with and without fluorescein. […]

A further test relates to Smad 2/3. In words: Western Blot against Smad2/3 in rabbit corneal fibroblasts. It counts as cell-based. The settings on record: primary culture; peptide 50 and 200 μg/ml. The protocol:
(§1) Therefore, Western Blot and immunofluorescence studies were conducted to determine, from cells extracted from the in vivo studies, the signaling pathway used by the peptides administered topically. It should be emphasized that said studies were conducted on fibroblasts from rabbit cornea and not from rat cornea. This decision was made due to the difficulty entailed in isolating fibroblasts from rodent eyes.
(§2) Since the scientific literature repeatedly describes the TGF-β1 signaling pathways, the decision was made to go into depth in such pathways by means of the techniques described in the methodology section. Said pathways involve the study of the Smad protein family, specifically the study of the isoforms Smad2, 2/3 and 7.
(§3) To that end, protein extracts obtained from the primary culture of rabbit fibroblasts were treated with TGF-β1 at concentrations of 0, 3 and 5 ng/ml and, 50 and 200 μg/ml of peptide p17 and p144.
(In general: In western blotting, separated proteins are transferred to a membrane and probed.)

The test system of test [1] is p-Smad2. Description: Western Blot against p-Smad2 in TGF-β1-treated primary culture of rabbit corneal fibroblasts. It counts as cell-based. The following applies: for inhibition of the expression of p-Smad2: TGF-β1 treated. The protocol:
as §1, §2, §3

A further test relates to Smad 7. Description: Western Blot against Smad7 in rabbit corneal fibroblasts treated with TGF-β. It counts as cell-based. The settings on record: primary culture; peptide 50 and 200 μg/ml. The protocol:
as §1, §2, §3

Test [2] concerns p-Smad2. In words: Immunofluorescence for p-Smad2 on rabbit corneal fibroblasts. It counts as cell-based. The following applies: TGF-β1 treated fibroblasts. The protocol: as §1

On to `CO[C@@]12[C@H](COC(N)=O)C3=C(C(=O)C(C)=C(N)C3=O)N1C[C@@H]1N[C@@H]12` [mitomycin C, reference compound], for which the “clinical efficacy of drugs usually used in the treatment of corneal fibrosis” value in the test on Long-Evans rats (first experiment, Group 1) was “correspond to those described in the scientific literature”.

For “KRIWFIPRSSWYERA (TGF-beta 1 inhibitor peptide) [p17]”, in the test on Smad 2/3, the “expression of Smad 2/3” value is “not affected; also recorded: not modified”. Besides, in the test on Long-Evans rats, the “chemical lesions induced after corneal damage with 1N NaOH” value is “decreases significantly”; the “corneal haze, significance treated at the fifth week vs. treated at day 0” value is reported as “highly significant”; the “epithelial closure, significance treated at the fifth week vs. treated at day 0” value is listed as “highly significant”; the corneal haze entry is on record as “clear decrease; also recorded: significantly reversed”. In the test on Long-Evans rats, the epithelial closure entry is listed as “clear decrease; also recorded: significantly reversed”. In the test on Long-Evans rats (fifth week), the “corneal haze, significance control vs. peptide” value is “highly significant” and the “epithelial closure, significance control vs. peptide” value is given as “very significant”. In addition, the “effect on the signaling cascade of TGF-β1” value in the test on p-Smad2 [1] (primary culture of rabbit corneal fibroblasts, Smad2, Smad2/3, Smad7) was “does not have any effect”. In the test on Smad 7, the “expression of Smad 7” value is on record as “not modified”. Also, the “translocation of p-Smad2 to the nucleus” value with p-Smad2 [2] was “did not inhibit”.

Take “TSLDASIIWAMMQN (TGF-beta 1 inhibitor peptide) [p144]”: the “expression of Smad 2/3” value with Smad 2/3 is given as “not affected; also recorded: not modified”. In the test with Long-Evans rats, the “chemical lesions induced after corneal damage with 1N NaOH” value is “decreases significantly”; the “corneal haze, significance treated at the fifth week vs. treated at day 0” value was “highly significant”; the “epithelial closure, significance treated at the fifth week vs. treated at day 0” value is “highly significant”; the corneal haze result was “clear decrease; also recorded: significantly reversed”. In addition, the epithelial closure entry in the test with Long-Evans rats is on record as “clear decrease; also recorded: significantly reversed”. Also, in the test on Long-Evans rats (fifth week), the “corneal haze, significance control vs. peptide” value is reported as “highly significant” and the “epithelial closure, significance control vs. peptide” value is on record as “highly significant”. Further, in the test with Long-Evans rats (fourth week), the “epithelial closure, significance control vs. peptide” value was “significant”. The “corneal haze, significance control vs. peptide” value in the test on Long-Evans rats (second and fourth week) is recorded as “significant”. Besides, in the test with p-Smad2 [1] (peptide 50 μg/ml), the “inhibition of the expression of p-Smad2” value was “slight inhibition; also recorded: inhibiting the phosphorylation of Smad2”. Further, the “inhibition of the expression of p-Smad2” value in the test with p-Smad2 [1] (peptide 200 μg/ml) was “reaching the values of the controls; also recorded: inhibiting the phosphorylation of Smad2”. The “expression of Smad 7” value in the test on Smad 7 is “not modified”. Also, the “translocation of p-Smad2 to the nucleus” value in the test with p-Smad2 [2] was “inhibited”.
